Test results from USRE39862E1, “Unsaturated 14, 15-cyclopropanoandrostanes, a method for their production and pharmaceutical compositions containing these compounds” (Schering AG, priority 2000, dated 2007).

What was measured:
[1] = Hershberger test; details: in vivo
[2] = target: T1, progesterone receptor of the rabbit uterus (Oryctolagus cuniculus, UniProt P06186); assay: binding to the progesterone receptor of the rabbit uterus (reference substance progesterone)
T1 construct: from tissue; host or cells: rabbit uterus
T1 sequence (P06186 1-930): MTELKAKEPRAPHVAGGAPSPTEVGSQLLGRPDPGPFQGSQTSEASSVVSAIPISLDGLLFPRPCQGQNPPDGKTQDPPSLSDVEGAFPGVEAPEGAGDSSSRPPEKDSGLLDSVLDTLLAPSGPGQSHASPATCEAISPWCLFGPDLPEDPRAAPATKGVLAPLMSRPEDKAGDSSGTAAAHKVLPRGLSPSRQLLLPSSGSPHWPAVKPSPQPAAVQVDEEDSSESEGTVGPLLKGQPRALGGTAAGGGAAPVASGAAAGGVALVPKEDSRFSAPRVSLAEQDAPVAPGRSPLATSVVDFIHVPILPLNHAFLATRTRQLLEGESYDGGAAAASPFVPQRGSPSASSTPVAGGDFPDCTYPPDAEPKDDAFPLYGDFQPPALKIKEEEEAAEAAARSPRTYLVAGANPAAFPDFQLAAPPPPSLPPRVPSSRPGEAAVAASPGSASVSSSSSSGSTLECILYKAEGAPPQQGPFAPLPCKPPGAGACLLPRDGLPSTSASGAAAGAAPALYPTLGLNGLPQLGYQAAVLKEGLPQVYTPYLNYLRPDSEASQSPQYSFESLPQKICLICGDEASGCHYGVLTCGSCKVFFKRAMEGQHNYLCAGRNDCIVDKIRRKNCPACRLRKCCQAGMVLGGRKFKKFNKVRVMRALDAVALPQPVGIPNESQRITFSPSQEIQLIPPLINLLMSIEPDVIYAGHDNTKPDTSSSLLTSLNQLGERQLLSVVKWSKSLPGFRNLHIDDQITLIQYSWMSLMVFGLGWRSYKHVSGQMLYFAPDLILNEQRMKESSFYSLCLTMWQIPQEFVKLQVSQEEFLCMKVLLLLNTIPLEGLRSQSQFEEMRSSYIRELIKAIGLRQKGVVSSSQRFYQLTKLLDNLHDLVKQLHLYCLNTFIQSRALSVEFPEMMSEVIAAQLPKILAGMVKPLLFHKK

[3] = target: T2, androgen receptor of the rat prostate (Rattus norvegicus, UniProt P15207); assay: binding to the androgen receptor of the rat prostate (reference substance R 1881); details: reference substance 17β-hydroxy-17α-methyl-estra-4,9,11-triene-3-one (R 1881)
T2 construct: to the androgen receptor of the rat prostate; from tissue; host or cells: rat prostate
T2 sequence (P15207 1-902): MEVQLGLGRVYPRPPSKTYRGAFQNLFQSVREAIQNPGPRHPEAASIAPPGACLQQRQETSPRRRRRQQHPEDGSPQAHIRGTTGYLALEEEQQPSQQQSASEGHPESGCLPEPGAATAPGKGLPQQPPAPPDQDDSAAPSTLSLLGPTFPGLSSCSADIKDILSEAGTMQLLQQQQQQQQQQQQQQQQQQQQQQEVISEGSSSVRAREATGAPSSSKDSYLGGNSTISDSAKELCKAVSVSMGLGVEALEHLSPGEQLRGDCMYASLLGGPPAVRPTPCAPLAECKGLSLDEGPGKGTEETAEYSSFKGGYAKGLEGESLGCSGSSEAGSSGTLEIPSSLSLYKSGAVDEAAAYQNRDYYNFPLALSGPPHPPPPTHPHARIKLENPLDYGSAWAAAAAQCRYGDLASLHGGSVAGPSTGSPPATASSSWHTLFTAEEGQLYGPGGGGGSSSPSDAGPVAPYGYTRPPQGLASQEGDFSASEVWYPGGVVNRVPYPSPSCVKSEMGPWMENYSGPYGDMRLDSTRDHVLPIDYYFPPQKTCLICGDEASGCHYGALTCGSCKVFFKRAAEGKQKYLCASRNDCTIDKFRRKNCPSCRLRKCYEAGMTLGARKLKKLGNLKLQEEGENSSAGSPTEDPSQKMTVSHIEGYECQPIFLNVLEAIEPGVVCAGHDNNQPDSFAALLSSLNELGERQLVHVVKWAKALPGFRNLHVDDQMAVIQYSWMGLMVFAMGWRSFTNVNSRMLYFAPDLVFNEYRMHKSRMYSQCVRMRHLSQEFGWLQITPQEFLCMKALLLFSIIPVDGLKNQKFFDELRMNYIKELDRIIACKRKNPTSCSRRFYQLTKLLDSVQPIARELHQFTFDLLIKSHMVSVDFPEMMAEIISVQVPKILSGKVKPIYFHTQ
Description: The 4-chloro-17β-hydroxy-14α,15α-methylene-androst-4-ene-3-one binds to the extent of 42%±3% to the androgen receptor of the rat prostate (reference substance. 17β-hydroxy-17α-methyl-estra-4,9,11-triene-3-one; R 1881).

[4] = pregnancy maintenance test; details: in vivo

SMILES: C[C@]12CCC(=O)C(Cl)=C1CC[C@@H]1[C@@H]2CC[C@]2(C)[C@@H](O)C[C@@H]3C[C@]312 [Example 3, 4-Chloro-17β-hydroxy-14α,15α-methylene-androst-4-ene-3-one]
- androgenic activity in the Hershberger test [1]: distinct androgenic activity
- binding to the progesterone receptor [2]: practically no binding
- binds to the extent of ... to the androgen receptor [3]: 42%±3%
- gestagenic activity in the pregnancy maintenance test [4]: hardly any gestagenic activity
